Test results: the supplement of paper PMC10307832

What was measured:
Assay in all cases: relative viability (nuclei count vs DMSO), 5 days (fraction); higher = more cells survive
[1] = compound: O=C(CCCCCCNC(=O)c1cnc(N(c2ccccc2)c2ccccc2)nc1)NO [Ricolinostat] + Nc1ncn([C@H]2C[C@H](O)[C@@H](CO)O2)c(=O)n1 [Decitabine] (partner 2 µM)
Outline: (§1)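 The day after seeding in 1536-well plates, lung cancer cell lines were treated by pin tool with a single drug, or with a fixed anchor-drug dose together with five library-drug doses (not always all listed) in √10 steps. After 5 days, a combined fix-and-stain solution (final 0.05% Triton X-100, 1% formaldehyde, 1 ug/ml Hoechst) was added. Nuclei counted on 4× images gave relative viability as treated counts over vehicle counts, reported as the median of duplicate plates.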

[2] = compound: CC1=CN2C(=O)C=C(N=C2C(=C1)C(C)NC3=CC=CC=C3)N4CCOCC4 [TGX 221] + Nc1nc2[nH]cc(CCc3ccc(C(=O)N[C@@H](CCC(=O)O)C(=O)O)cc3)c2c(=O)[nH]1 [Pemetrexed] (partner 0.2 µM)
Outline: as §1

[3] = compound: C1=CC=C(C(=C1)C2=CC=C(C=C2)C3=CSC4=C3C(=C(C(=O)N4)C#N)O)O + COc1cc2c(Oc3ccc(NC(=O)C4(C(=O)Nc5ccc(F)cc5)CC4)cc3F)ccnc2cc1OCCCN1CCOCC1 [Foretinib] (partner 0.25 µM)
Outline: as §1

[4] = compound: O=C(CCCCCCNC(=O)c1cnc(N(c2ccccc2)c2ccccc2)nc1)NO [Ricolinostat] + Cc1cc(Nc2cc(N3CCN(C)CC3)nc(Sc3ccc(NC(=O)C4CC4)cc3)n2)n[nH]1 [Tozasertib] (partner 0.1 µM)
Outline: as §1

## HCC-78
[1]; first compound 0.253 µM
  relative viability: 0.7
[1]; first compound 0.8 µM
  relative viability: 0.602
[1]; first compound 2.53 µM
  relative viability: 0.585
[2]; first compound 0.08 µM
  relative viability: 0.827
[2]; first compound 0.253 µM
  relative viability: 0.928
[2]; first compound 0.8 µM
  relative viability: 0.771
[2]; first compound 2.53 µM
  relative viability: 0.877
[2]; first compound 8 µM
  relative viability: 0.921
[3]; first compound 0.08 µM
  relative viability: 0.649
[3]; first compound 0.253 µM
  relative viability: 0.629
[3]; first compound 0.8 µM
  relative viability: 0.579
[3]; first compound 2.53 µM
  relative viability: 0.498
[3]; first compound 8 µM
  relative viability: 0.52
[4]; first compound 0.253 µM
  relative viability: 0.33
[4]; first compound 0.8 µM
  relative viability: 0.347
[4]; first compound 2.53 µM
  relative viability: 0.27

## HCC-366
[1]; first compound 0.08 µM
  relative viability: 0.332
[1]; first compound 0.253 µM
  relative viability: 0.344
[1]; first compound 0.8 µM
  relative viability: 0.342
[1]; first compound 2.53 µM
  relative viability: 0.329
[2]; first compound 0.08 µM
  relative viability: 0.158
[2]; first compound 0.253 µM
  relative viability: 0.146
[2]; first compound 0.8 µM
  relative viability: 0.184
[2]; first compound 2.53 µM
  relative viability: 0.165
[2]; first compound 8 µM
  relative viability: 0.16
[3]; first compound 0.08 µM
  relative viability: 1.03
[3]; first compound 0.253 µM
  relative viability: 0.974
[3]; first compound 0.8 µM
  relative viability: 0.949
[3]; first compound 2.53 µM
  relative viability: 0.992
[3]; first compound 8 µM
  relative viability: 0.959
[4]; first compound 0.08 µM
  relative viability: 0.241
[4]; first compound 0.253 µM
  relative viability: 0.0847
[4]; first compound 0.8 µM
  relative viability: 0.0896
[4]; first compound 2.53 µM
  relative viability: 0.0599

## HCC-827
[1]; first compound 0.08 µM
  relative viability: 0.32
[1]; first compound 0.253 µM
  relative viability: 0.327
[1]; first compound 0.8 µM
  relative viability: 0.233
[1]; first compound 2.53 µM
  relative viability: 0.274
[2]; first compound 0.08 µM
  relative viability: 0.264
[2]; first compound 0.253 µM
  relative viability: 0.294
[2]; first compound 0.8 µM
  relative viability: 0.272
[2]; first compound 2.53 µM
  relative viability: 0.248
[2]; first compound 8 µM
  relative viability: 0.249
[3]; first compound 0.08 µM
  relative viability: 1.11
[3]; first compound 0.253 µM
  relative viability: 1.04
[3]; first compound 0.8 µM
  relative viability: 1.04
[3]; first compound 2.53 µM
  relative viability: 1.06
[3]; first compound 8 µM
  relative viability: 0.969
[4]; first compound 0.08 µM
  relative viability: 0.354
[4]; first compound 0.253 µM
  relative viability: 0.413
[4]; first compound 0.8 µM
  relative viability: 0.409
[4]; first compound 2.53 µM
  relative viability: 0.379

## HOP-62
[1]; first compound 0.08 µM
  relative viability: 0.217
[1]; first compound 0.253 µM
  relative viability: 0.186
[1]; first compound 0.8 µM
  relative viability: 0.144
[1]; first compound 2.53 µM
  relative viability: 0.221
[2]; first compound 0.08 µM
  relative viability: 0.315
[2]; first compound 0.253 µM
  relative viability: 0.279
[2]; first compound 0.8 µM
  relative viability: 0.289
[2]; first compound 2.53 µM
  relative viability: 0.438
[2]; first compound 8 µM
  relative viability: 0.376
[3]; first compound 0.08 µM
  relative viability: 1.15
[3]; first compound 0.253 µM
  relative viability: 1.01
[3]; first compound 0.8 µM
  relative viability: 1.17
[3]; first compound 2.53 µM
  relative viability: 1.28
[3]; first compound 8 µM
  relative viability: 1
[4]; first compound 0.08 µM
  relative viability: 0.374
[4]; first compound 0.253 µM
  relative viability: 0.344
[4]; first compound 0.8 µM
  relative viability: 0.35
[4]; first compound 2.53 µM
  relative viability: 0.312

## IA-LM
[3]; first compound 0.08 µM
  relative viability: 0.893
[3]; first compound 0.253 µM
  relative viability: 1.35
[3]; first compound 0.8 µM
  relative viability: 1.01
[3]; first compound 2.53 µM
  relative viability: 1.41
[3]; first compound 8 µM
  relative viability: 1.14

## LC-2-ad
[1]; first compound 0.08 µM
  relative viability: 0.776
[1]; first compound 0.253 µM
  relative viability: 0.784
[1]; first compound 0.8 µM
  relative viability: 0.842
[1]; first compound 2.53 µM
  relative viability: 0.835
[2]; first compound 0.08 µM
  relative viability: 0.272
[2]; first compound 0.253 µM
  relative viability: 0.282
[2]; first compound 0.8 µM
  relative viability: 0.287
[2]; first compound 2.53 µM
  relative viability: 0.259
[2]; first compound 8 µM
  relative viability: 0.265
[3]; first compound 0.08 µM
  relative viability: 0.877
[3]; first compound 0.253 µM
  relative viability: 1.06
[3]; first compound 0.8 µM
  relative viability: 0.96
[3]; first compound 2.53 µM
  relative viability: 0.968
[3]; first compound 8 µM
  relative viability: 0.753
[4]; first compound 0.08 µM
  relative viability: 0.474
[4]; first compound 0.253 µM
  relative viability: 0.412
[4]; first compound 0.8 µM
  relative viability: 0.371
[4]; first compound 2.53 µM
  relative viability: 0.299

## LCLC-97TM1
[1]; first compound 0.08 µM
  relative viability: 0.225
[1]; first compound 0.253 µM
  relative viability: 0.185
[1]; first compound 0.8 µM
  relative viability: 0.214
[1]; first compound 2.53 µM
  relative viability: 0.227
[2]; first compound 0.08 µM
  relative viability: 0.167
[2]; first compound 0.253 µM
  relative viability: 0.169
[2]; first compound 0.8 µM
  relative viability: 0.173
[2]; first compound 2.53 µM
  relative viability: 0.197
[2]; first compound 8 µM
  relative viability: 0.179
[3]; first compound 0.08 µM
  relative viability: 0.827
[3]; first compound 0.253 µM
  relative viability: 1.16
[3]; first compound 0.8 µM
  relative viability: 1.01
[3]; first compound 2.53 µM
  relative viability: 1.03
[3]; first compound 8 µM
  relative viability: 0.91
[4]; first compound 0.08 µM
  relative viability: 0.171
[4]; first compound 0.253 µM
  relative viability: 0.2
[4]; first compound 0.8 µM
  relative viability: 0.149
[4]; first compound 2.53 µM
  relative viability: 0.153

## LCLC-103H
[1]; first compound 0.08 µM
  relative viability: 0.726
[1]; first compound 0.253 µM
  relative viability: 0.745
[1]; first compound 0.8 µM
  relative viability: 0.76
[1]; first compound 2.53 µM
  relative viability: 0.739
[2]; first compound 0.08 µM
  relative viability: 0.441
[2]; first compound 0.253 µM
  relative viability: 0.481
[2]; first compound 0.8 µM
  relative viability: 0.451
[2]; first compound 2.53 µM
  relative viability: 0.455
[2]; first compound 8 µM
  relative viability: 0.5
[3]; first compound 0.08 µM
  relative viability: 0.78
[3]; first compound 0.253 µM
  relative viability: 0.735
[3]; first compound 0.8 µM
  relative viability: 0.93
[3]; first compound 2.53 µM
  relative viability: 0.698
[3]; first compound 8 µM
  relative viability: 0.587
[4]; first compound 0.08 µM
  relative viability: 0.443
[4]; first compound 0.253 µM
  relative viability: 0.401
[4]; first compound 0.8 µM
  relative viability: 0.393
[4]; first compound 2.53 µM
  relative viability: 0.337
